From ChEMBL document CHEMBL1130138, “Design of low molecular weight hematoregulatory agents from the structure-activity relationship of a dimeric pentapeptide” (1997) come the findings set out here.

The first experiment has as its system C6. The experiment is described as follows: Neutralization of colony - stimulating activity was determined by incubating supernatants from stromal cells stimulated by compound (1000 ng/mL) with an antibody raised against KC[38-72]. It is filed as functional, Mus musculus.
Settings: not given
`NCCCC[C@H](NC(=O)[C@H](CCCC[C@H](NC(=O)[C@H](CC(=O)O)NC(=O)[C@H](CCC(=O)O)NC(=O)[C@@H]1CCC(=O)N1)C(=O)N[C@@H](CCCCN)C(=O)O)NC(=O)[C@H](CC(=O)O)NC(=O)[C@H](CCC(=O)O)NC(=O)[C@@H]1CCC(=O)N1)C(=O)O` [GLASPIMOD] displayed an HSF of 0 units/mL.

The same experiment, now with this note: in the assay text read “100 ng/mL” for “1000 ng/mL”.
In turn, `O=C(N[C@@H](CO)C(=O)O)c1nccnc1C(=O)N[C@H](CO)C(=O)O` displayed an HSF of 0 units/mL.

With `O=C(N[C@H](CO)C(=O)O)c1nccnc1C(=O)N[C@H](CO)C(=O)O`, the HSF was 0 units/mL.

The next experiment concerns C6. The experiment is described as follows: HSF produced by bone marrow-derived stromal cell lines C6.4 on stimulation with the compound at (1000 ng/mL) was determined in vitro in an GM-CFC assay.
Settings: not given
It is filed as functional, Mus musculus.
`NCCCC[C@H](NC(=O)[C@H](CCCC[C@H](NC(=O)[C@H](CC(=O)O)NC(=O)[C@H](CO)NC(=O)c1nccc2ccccc12)C(=O)N[C@@H](CCCCN)C(=O)O)NC(=O)[C@H](CC(=O)O)NC(=O)[C@H](CO)NC(=O)c1nccc2ccccc12)C(=O)O`: the HSF worked out at 0 units/mL. Take `NCCCC[C@H](NC(=O)[C@H](CCCC[C@H](NC(=O)[C@H](CC(=O)O)NC(=O)[C@H](CO)NC(=O)c1ncccc1O)C(=O)N[C@@H](CCCCN)C(=O)O)NC(=O)[C@H](CC(=O)O)NC(=O)[C@H](CO)NC(=O)c1ncccc1O)C(=O)O`: the HSF was 2.8e+06 units/mL. `NCCCC[C@H](NC(=O)[C@H](CCCC[C@H](NC(=O)[C@H](CC(=O)O)NC(=O)[C@H](CO)NC(=O)c1ccc2ccccc2n1)C(=O)N[C@@H](CCCCN)C(=O)O)NC(=O)[C@H](CC(=O)O)NC(=O)[C@H](CO)NC(=O)c1ccc2ccccc2n1)C(=O)O`: the HSF was 0 units/mL.

In the case of `NCCCC[C@H](NC(=O)[C@H](CCCC[C@H](NC(=O)[C@H](CC(=O)O)NC(=O)[C@H](CO)NC(=O)c1cnccn1)C(=O)N[C@@H](CCCCN)C(=O)O)NC(=O)[C@H](CC(=O)O)NC(=O)[C@H](CO)NC(=O)c1cnccn1)C(=O)O`, the HSF amounted to 120000 units/mL. In the case of `NCCCC[C@H](NC(=O)[C@H](CCCC[C@H](NC(=O)[C@H](CC(=O)O)NC(=O)[C@H](CO)NC(=O)c1ccc[nH]1)C(=O)N[C@@H](CCCCN)C(=O)O)NC(=O)[C@H](CC(=O)O)NC(=O)[C@H](CO)NC(=O)c1ccc[nH]1)C(=O)O`, the HSF stood at 1e+06 units/mL.

As for `O=C(N[C@@H](CO)C(=O)O)c1ccccc1C(=O)N[C@H](CO)C(=O)O`, the HSF turned out to be 0 units/mL. Still for that read-out and setting: in the case of `NCCCC[C@H](NC(=O)[C@H](CCCC[C@H](NC(=O)[C@H](CC(=O)O)NC(=O)[C@H](CO)NC(=O)c1cc2ccccc2[nH]1)C(=O)N[C@@H](CCCCN)C(=O)O)NC(=O)[C@H](CC(=O)O)NC(=O)[C@H](CO)NC(=O)c1cc2ccccc2[nH]1)C(=O)O` it was 0 units/mL; in that of `CC(=O)Nc1cccc(C(=O)N[C@@H](CO)C(=O)N[C@@H](CC(=O)O)C(=O)N[C@@H](CCCC[C@H](NC(=O)[C@H](CC(=O)O)NC(=O)[C@H](CO)NC(=O)c2cccc(NC(C)=O)n2)C(=O)N[C@@H](CCCCN)C(=O)O)C(=O)N[C@@H](CCCCN)C(=O)O)n1`, 2.4e+06 units/mL. On the same count and under the same terms, with `O=C(N[C@H](CO)C(=O)O)c1cccnc1C(=O)N[C@@H](CO)C(=O)O` the figure was 0 units/mL; with `O=C(N[C@@H](CO)C(=O)O)c1cccnc1C(=O)N[C@H](CO)C(=O)O`, 1.2e+06 units/mL; with `O=C(NC(CO)C(=O)O)c1nccnc1C(=O)N[C@@H](CO)C(=O)O` (single isomer, unassigned), 0 units/mL.
